Test results published in PubChem BioAssay (NCI).
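A five-concentration, 48-hour dose response in 96-well plates underlies each endpoint, interpolated linearly between surrounding concentrations. TGI is the concentration that stops growth completely.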

What was measured:
Assay in all cases: growth of human tumour cells (NCI), 48 h
SF-295 CNS = system: SF-295 CNS
UACC-62 melanoma = system: UACC-62 melanoma
SK-MEL-2 melanoma = system: SK-MEL-2 melanoma
MDA-N = system: MDA-N
HL-60(TB) leukemia = system: HL-60(TB) leukemia
MALME-3M melanoma = system: MALME-3M melanoma
RXF 393 renal = system: RXF 393 renal
SK-MEL-5 melanoma = system: SK-MEL-5 melanoma
HOP-62 NSCLC = system: HOP-62 NSCLC
LOX IMVI melanoma = system: LOX IMVI melanoma
SK-OV-3 ovarian = system: SK-OV-3 ovarian
HS 578T breast = system: HS 578T breast
NCI/ADR-RES ovarian = system: NCI/ADR-RES ovarian
EKVX NSCLC = system: EKVX NSCLC
IGROV1 ovarian = system: IGROV1 ovarian
U251 CNS = system: U251 CNS
TK-10 renal = system: TK-10 renal
786-0 renal = system: 786-0 renal
NCI-H460 lung = system: NCI-H460 lung
ACHN renal = system: ACHN renal
SN12C renal = system: SN12C renal
HCC-2998 colon = system: HCC-2998 colon
SK-MEL-28 melanoma = system: SK-MEL-28 melanoma
HT29 colon = system: HT29 colon
SF-268 CNS = system: SF-268 CNS
OVCAR-5 ovarian = system: OVCAR-5 ovarian
SW-620 colon = system: SW-620 colon
OVCAR-8 ovarian = system: OVCAR-8 ovarian
HCT-116 colon = system: HCT-116 colon
MDA-MB-435 = system: MDA-MB-435
K-562 leukemia = system: K-562 leukemia
SR leukemia = system: SR leukemia
KM12 colon = system: KM12 colon
A549 NSCLC = system: A549 NSCLC
SNB-19 CNS = system: SNB-19 CNS
PC-3 prostate = system: PC-3 prostate
COLO 205 colon = system: COLO 205 colon
HOP-92 NSCLC = system: HOP-92 NSCLC
MOLT-4 leukemia = system: MOLT-4 leukemia
BT-549 breast = system: BT-549 breast
SF-539 CNS = system: SF-539 CNS
T-47D breast = system: T-47D breast
OVCAR-4 ovarian = system: OVCAR-4 ovarian
SNB-75 CNS = system: SNB-75 CNS
HCT-15 colon = system: HCT-15 colon
DU-145 prostate = system: DU-145 prostate
MDA-MB-231 breast = system: MDA-MB-231 breast
A498 renal = system: A498 renal
M14 melanoma = system: M14 melanoma
MCF7 breast = system: MCF7 breast
OVCAR-3 ovarian = system: OVCAR-3 ovarian
NCI-H522 lung = system: NCI-H522 lung
NCI-H226 lung = system: NCI-H226 lung
UACC-257 melanoma = system: UACC-257 melanoma
CAKI-1 renal = system: CAKI-1 renal

Measured: TGI

CC(O)(Cc1ccccc1C#N)Cc1ccccc1C#N
98.9 µM: SNB-75 CNS
> 100 µM: SF-295 CNS | UACC-62 melanoma | SK-MEL-2 melanoma | MDA-N | MALME-3M melanoma | RXF 393 renal | SK-MEL-5 melanoma | HOP-62 NSCLC | LOX IMVI melanoma | SK-OV-3 ovarian | HS 578T breast | NCI/ADR-RES ovarian | EKVX NSCLC | IGROV1 ovarian | U251 CNS | TK-10 renal | 786-0 renal | NCI-H460 lung | ACHN renal | SN12C renal | HCC-2998 colon | SK-MEL-28 melanoma | HT29 colon | SF-268 CNS | OVCAR-5 ovarian | SW-620 colon | OVCAR-8 ovarian | HCT-116 colon | MDA-MB-435 | K-562 leukemia | SR leukemia | KM12 colon | A549 NSCLC | SNB-19 CNS | PC-3 prostate | COLO 205 colon | HOP-92 NSCLC | MOLT-4 leukemia | BT-549 breast | SF-539 CNS | T-47D breast | OVCAR-4 ovarian | HCT-15 colon | DU-145 prostate | MDA-MB-231 breast | A498 renal | M14 melanoma | MCF7 breast | OVCAR-3 ovarian | NCI-H522 lung | NCI-H226 lung | UACC-257 melanoma | CAKI-1 renal
97.7 µM: HL-60(TB) leukemia
